The nature of data set [1]: Body weight of C57BL/6J mice on high fat diet, 12-week feeding study. Type of data set: in vivo. The conditions noted are these: for weight gain during the treatment period: 8 weeks of treatment in high fat diet, high fat control 9.76 g; for overall weight gain during the experimental period: 12 weeks, high fat control 18.98 g; for weight loss: compared to the high fat diet controls; for body weight: high fat diet with compound, high fat control 36.91 g, normal diet 31.5 g. Here is the method:
Animals and Diet: Male C57BL/6J mice, 4 weeks old, were purchased from Jackson Laboratories (Bar Harbor, Me., USA). The mice were individually housed under controlled temperature (70° F.) and 12 h light-dark cycles. The mice (n=40) had free access to water and laboratory non-purified diet for 5 days. After acclimatization, the mice were randomly divided into groups 1-5 (n=8) for the study. The experiments were carried out according to the ethical guidelines of University Laboratory Animal Resources (ULAR) at Michigan State University, East Lansing, Mich. The diets, 10% K. Cal. (normal) and 60% K. Cal. (high fat), were purchased from Research Diets (New Brunswick, N.J.). The controls were groups 1 and 2 and received normal (10% K. Cal.) and high fat (60% K. Cal.) diets, respectively, throughout the study. The food was prepared for each treatment separately by mixing 1 g of pure anthocyanin mixture, 500 mg each of betulinic and ursolic acids per kilogram high fat diet. The treatment groups, 3-5, were fed initially for 4 weeks with the high fat diet and then switched to the diet containing anthocyanins, betulinic acid or ursolic acids. Food was changed at intervals of three days to avoid oxidation of the fat or compounds. The daily food intake (FIG. 1) and the weekly body weight for each animal were determined throughout the study (FIG. 2A-C).

The conditions of data set [2]: for plasma insulin level: end of feeding, controls 0.47 and 0.41 ng/mL.
Method: Collection of serum, liver and adipose tissue. The feeding was terminated after 12 weeks. The animals were then anesthetized by using isoflurane, sacrificed and blood was collected by cardiac puncture in heparinized tubes. The plasma was separated by centrifugation at 1600×g for 10 min at 4° C., frozen immediately and stored at −20° C. until use. […] All tissues were then transferred from liquid nitrogen and stored at −80° C. until analyses.
Radio Immuno Assay (RIA). The plasma insulin levels were measured by rat insulin RIA kit purchased from LINCO Research Inc. (St. Charles, Mo.). The insulin standards (100 aliquots) were pipetted to 12×75 mm test tubes. A total of 10 concentrations of insulin, ranging from 0.1-10 ng/mL, were used to determine the standard curve. The plasma samples (aliquots of 1-25 μl) were added to test tubes and the assay buffer was added to attain a total sample volume of 100 μl. The ^125I labeled insulin and anti rat insulin antibody (100 μL each) were added to the tubes, mixed and incubated at 4° C. After 24 h, the precipitating reagent (1 mL) was added and incubated again at 4° C. for 20 min to precipitate the insulin bound to the antibody. The tubes were then centrifuged for 20 min at 3000 g, decanted and the radioactivity was measured using a gamma counter.
The nature of data set [3]: Total plasma cholesterol at end of feeding study. The class given is in vivo, C57BL/6J mice. The conditions noted are these: high fat control 156.4, normal diet 120.5. Here is the method:
Collection of serum, liver and adipose tissue. The feeding was terminated after 12 weeks.
Determination of Plasma Cholesterol: The total plasma cholesterol was analyzed by Clinical Pathology Laboratory at the Diagnostic Center for Population and Animal Health, College of Veterinary Medicine, Michigan State University according to the established standard analytical protocol for total cholesterol.

Data set [4] is described as follows: Glucose tolerance test (i.p. glucose 2 g/kg) in high fat diet fed mice. Type of data set: in vivo, C57BL/6J mice. The conditions noted are these: for blood glucose level after 90 min of glucose load: 90 min after 2 g/kg i.p. glucose, high fat control 363, normal diet 190. Here is the method:
Glucose Tolerance Test (GTT). The glucose tolerance test was performed on five animals from each group (n=5) after 6 weeks of supplementation. The blood glucose level was measured at time 0 (min) with a Free Style Flash (TheraSense, Inc., CA) handheld glucometer using the test strips (Free Style, TheraSense, Inc., CA). For GTT, a sterile solution containing 2 g of glucose per kg body weight was injected intraperitoneally (i.p.). The tail vein blood was collected and glucose levels measured at 5, 10, 15, 30, 60, and 90 min, respectively. The blood glucose levels were plotted against the time (FIG. 3).

A further data set has as its system INS-1 832/13 cells. The data set is described as follows: Insulin secretion by INS-1 832/13 pancreatic beta cells (RIA, normalized to cellular protein). Type of data set: cell-based, rodent. The conditions noted are these: for increase in insulin secretion: increase over untreated cells; for fold increase in insulin secretion: vs untreated cells. Here is the method:
Insulin Secretion Studies. INS-1 832/13 cells (kindly provided by Dr Christopher Newgard, Duke University, N.C.) were routinely cultured in 5% CO2/air at 37° C. in RPMI-1640 medium containing 11.1 mM glucose and supplemented with 10% FBS (Fetal Bovine Serum), 10 mM HEPES, 100 U/ml penicillin, […] streptomycin, 4 mM Glutamine, 1 mM sodium pyruvate, and 50 μM 2-mercaptoethanol. Cells were passed weekly after trypsin-EDTA detachment. For static secretion studies, cells were plated on 24 well plates at a density of 0.64×10^6 cells per well and grown for 24 h. The cells were then cultured for an additional 24 h in RPMI-1640 containing 4 mM glucose and the supplements described above. Cells were then incubated twice for 30 min in Krebs Ringer Bicarbonate buffer (KRBB) containing 4 mM glucose and 0.1% BSA. Cells were rapidly washed with KRBB and incubated for 60 min KRBB containing 4 or 10 mM glucose with or without the indicated anthocyanins or anthocyanidins. The medium was then removed for determining insulin release. The cells were then washed twice with PBS and dissolved in 1 M NaOH. Cellular protein concentration was then determined by Lowry assay. Anthocyanins and anthocyanidins were dissolved in DMSO to obtain desired concentrations. Final concentration of DMSO was 0.1%. The insulin secreted into the medium by the cells was determined by radioimmuno assay and normalized to total cellular protein.
Radio Immuno Assay (RIA). The Kit for RIA was purchased from LINCO Research Inc. (St Charles, Mo.), and the assay was conducted according to the manufacturer's directions. Briefly, 0.1-10 ng of insulin standards (100 μl) were added to 12×75 mm test tubes. Similarly, samples (25 μl) from the insulin secretion studies were also added to the test tubes. To this, an aliquot (75 μl) of assay buffer was added. The ^125I labeled insulin (100 μl) was then added to each test tube. […] The tubes were then centrifuged and the radioactivity was measured using a gamma counter.
Lowry protein Assay. The amount of protein in the assay wells was determined by Lowry method. The Lowry assay solution was prepared by combining the Lowry solution, CuSO4.5H2O (1%), and sodium tartarate (1%). Briefly, the protein sample (100 μl) and Lowry mixture (1 mL) were mixed in a test tube (12×75). The Folin-Ciolatues reagent (100 μl) was added to these tubes, mixed, and incubated for 30 min at room temperature. The optical density of resulting solutions was read at 700 nm using a UV spectrophotometer.

The mark [5] stands for this setting: 4 and 10 mM glucose, or glucose level not specified.

The results in this text go back to patent US20120283203A1, “METHODS AND COMPOSITIONS FOR THE TREATMENT OF OBESITY, INSULIN RELATED DISEASES AND HYPERCHOLESTEROLEMIA” (Board of Trustees of Michigan State University, priority 2005, published 2012).

“And” between values parts separate entries of the source, which are not always exact repeats. Equal entries are not always repeated. “Also recorded” adds a separate entry of the source.

Take `C=C(C)[C@@H]1CC[C@]2(C(=O)O)CC[C@]3(C)[C@H](CC[C@@H]4[C@@]5(C)CC[C@H](O)C(C)(C)[C@@H]5CC[C@]43C)[C@@H]12` [betulinic acid]: in data set [1], the “weight gain during the treatment period” value came out at 7.73 ± 0.44 g, the “overall weight gain during the experimental period” value worked out at 15.16 g, the weight loss came out at 21% and the body weight amounted to 33.54 g. In addition, the “weight gain during the treatment period” value in data set [1] (listed as 2 (group 4)) is on record as 7.73 g. The plasma insulin level in data set [2] was 460 ± 93.68 ng/mL and 460.86 ± 193.68 ng/mL. In data set [3], this compound yielded a plasma cholesterol level of 126.5 ± 14.01 mg/dL. The “blood glucose level after 90 min of glucose load” value in data set [4] is 317.8 ± 21.9 mg/dL. The “blood glucose level at zero time” value in data set [4] (before glucose load, high fat control 119.8) worked out at 123.4 ± 6.0 mg/dL.
On to `OC[C@H]1O[C@@H](Oc2cc3c(O)cc(O)cc3[o+]c2-c2ccc(O)c(O)c2)[C@H](O)[C@@H](O)[C@H]1O` [cyanidin-3-galactoside], for which the “effect on insulin secretion (in words)” value in the data set on INS-1 832/13 cells (4 mM glucose) is on record as “did not increase the insulin secretion”. For the same compound, in the data set on INS-1 832/13 cells (10 mM glucose, 50 μg/mL), the “increase in insulin secretion” value is reported as 17 ng/mg of protein and the “fold increase in insulin secretion” value is 1.2 fold. Moreover, the “effect on insulin secretion (in words)” value with INS-1 832/13 cells (setting [5]) is recorded as “significant increase in insulin secretion”.
With `OC[C@H]1O[C@@H](Oc2cc3c(O)cc(O)cc3[o+]c2-c2ccc(O)c(O)c2)[C@H](O)[C@@H](O)[C@@H]1O` [cyanidin-3-glucoside], the “effect on insulin secretion (in words)” value with INS-1 832/13 cells (4 mM glucose) is recorded as “less active than delphinidin-3-glucoside”; in the data set with INS-1 832/13 cells (10 mM glucose), “more active”; in the data set with INS-1 832/13 cells (setting [5]), “most effective insulin secretagogues”. For the same compound, the insulin secreted in the data set on INS-1 832/13 cells (4 mM glucose, 5 μg/mL, untreated cells 33) is recorded as 46 ng of insulin per mg protein; with INS-1 832/13 cells (10 mM glucose, 50 μg/mL), 119 ng/mg protein. Also, in the data set on INS-1 832/13 cells (4 mM glucose, 50 μg/mL), the “increase in insulin secretion” value is 9 ng/mg of protein. In addition, the “fold increase in insulin secretion” value in the data set with INS-1 832/13 cells (4 mM glucose, 50 μg/mL) stood at 1.3 fold; with INS-1 832/13 cells (10 mM glucose, 50 μg/mL) it was 1.43 fold. Moreover, the “dose dependent insulin secretion (in words)” value in the data set on INS-1 832/13 cells (4 mM glucose, 10, 50, 100 and 250 μg/mL) was “no significant difference in insulin secretion”.
Take `Oc1cc(O)c2cc(O)c(-c3ccc(O)c(O)c3)[o+]c2c1` [cyanidin]: in the data set on INS-1 832/13 cells (4 mM glucose, 50 μg/mL), the insulin secreted was 29 ng/mg of protein and the “fold increase in insulin secretion” value came to 1.5 fold. Also, the insulin secreted with INS-1 832/13 cells (10 mM glucose, 50 μg/mL) came out at 88 ng/mg protein.
Turning to `OC[C@H]1O[C@@H](Oc2cc3c(O)cc(O)cc3[o+]c2-c2cc(O)c(O)c(O)c2)[C@H](O)[C@@H](O)[C@@H]1O` [delphinidin-3-glucoside], the insulin secreted in the data set with INS-1 832/13 cells (4 mM glucose, 50 μg/mL) was 49 ng/mg of protein; with INS-1 832/13 cells (10 mM glucose, 50 μg/mL), 113 ng/mg protein. Besides, the “fold increase in insulin secretion” value in the data set with INS-1 832/13 cells (4 mM glucose, 50 μg/mL) is on record as 1.8 fold; with INS-1 832/13 cells (10 mM glucose, 50 μg/mL), 1.4 fold. For the same compound, the “effect on insulin secretion (in words)” value in the data set on INS-1 832/13 cells (setting [5]) was “most effective insulin secretagogues; also recorded: significantly induced the insulin secretion”; with INS-1 832/13 cells (4 and 10 mM glucose, or glucose level not specified, listed as Delphinidin-3-glucoside) it was “most active anthocyanin tested”.
On to `Oc1cc(O)c2cc(O)c(-c3cc(O)c(O)c(O)c3)[o+]c2c1` [delphinidin], for which the “increase in insulin secretion” value in the data set with INS-1 832/13 cells (4 mM glucose, 50 μg/mL) is 6 ng/mg of protein.
With `OCC1OC(Oc2cc3c(O)cc(O)cc3[o+]c2-c2ccc(O)cc2)C(O)C(O)C1O` (stereo not shown) [pelargonidin-3-galactoside], the “effect on insulin secretion (in words)” value in the data set with INS-1 832/13 cells (4 mM glucose) is recorded as “did not increase the insulin secretion”; in the data set on INS-1 832/13 cells (setting [5]), “did not induce insulin secretion”.
Regarding `Oc1ccc(-c2[o+]c3cc(O)cc(O)c3cc2O)cc1` [pelargonidin], the insulin secreted in the data set with INS-1 832/13 cells (4 mM glucose, 50 μg/mL) is reported as 49 ng/mg of protein; in the data set with INS-1 832/13 cells (10 mM glucose, 50 μg/mL) it was 91 ng/mg protein. For the same compound, the “fold increase in insulin secretion” value is 1.4 fold in the data set with INS-1 832/13 cells (4 mM glucose, 50 μg/mL) and 1.2 fold in the data set on INS-1 832/13 cells (10 mM glucose, 50 μg/mL).
For `COc1cc(-c2[o+]c3cc(O)cc(O)c3cc2O)cc(O)c1O` [petunidin], the “increase in insulin secretion” value with INS-1 832/13 cells (4 mM glucose, 50 μg/mL) is 4 ng/mg of protein.
`C[C@H]1[C@H](C)CC[C@]2(C(=O)O)CC[C@]3(C)C(=CC[C@@H]4[C@@]5(C)CC[C@H](O)C(C)(C)[C@@H]5CC[C@]43C)[C@H]12` [ursolic acid]: the “weight gain during the treatment period” value in data set [1] (listed as 3 (group 5)) is 8.78 g. Also, in data set [1], the “overall weight gain during the experimental period” value was determined as 17.45 g, the weight loss entry is “not significant” and the body weight stood at 34.89 g. Besides, in data set [1] (compared to high fat diet control), the “effect on body weight (in words)” value is “did not decrease bodyweight of the treated animals significantly”. Moreover, in data set [2], the plasma insulin level was 52.25 ± 8.84 ng/mL and 52.25 ± 18.84 ng/mL. Also, in data set [4], the “blood glucose level after 90 min of glucose load” value came out at 227 ± 22.982 mg/dL. Moreover, in data set [4] (after glucose injection), the “time at which blood glucose concentration reached the maximum” value is 60 min. In addition, the “glucose tolerance / insulin resistance (in words)” value in data set [4] (high fat diet fed mice) is “corrected glucose levels similar to control group animals fed on normal diet; also recorded: overcame the insulin resistance; also recorded: glucose absorption was slow”.
As to anthocyanins, the hypoglycemia result in data set [2] (mouse, in vivo) was “without causing hypoglycemia”.
